Measurements reported in patent publication US20080051429A1, “USE OF 4-AMINO-PIPERIDINES FOR TREATING SLEEP DISORDERS” (priority 2006, published 2008).
Read-outs that look alike come from different tables or passages of the source. Blank lines part the entries; values can stand above or below the compound they belong to.

Tests used:
healthy volunteers [1] = test: Continuous Performance Test (CPT); assay type: in vivo, human
Procedure: Performance Assessment: A Continuous Performance Test (CPT; Rosvold M E, Mirsky A F, Sarason I, Bransome E R Jr., Beck L H (1956) A continuous performance test for brain damage. J Consult Psychol 20:343-350, which is incorporated herein by reference in its entirety), was used to evaluate attention and vigilance. The test was administered both during the evening and the morning following the baseline PSG on Day 1 and the evaluation PSG on Day 13. Participants were rapidly presented a numerical train with a target number as point of reference. Participants pushed a button rapidly when the target number appeared in the number list. The procedure lasted three minutes. The number of targets detected and the number of false alarms were assessed.

healthy volunteers [2] = test: Clinical safety evaluation; assay type: in vivo, human
Procedure: Safety: 3-positional vital signs, ECGs, body temperature, and respiratory rates as well as blood chemistries, hematology, and urinalysis served as safety measures. Safety measures were assessed at screening, baseline (Day −1), Day 1, Day 2, Day 13, and Day 14. Any observed or reported adverse events were recorded. Blood samples were taken on Day −1 (baseline) and on Day 14 (steady state). Two weeks after the termination of treatment administration (Day 28), an end-of-study visit was conducted, and included a clinical safety evaluation.

5HT1A [3] = biological target: T1, 5HT1A (Homo sapiens, UniProt P08908); test: R-SAT broad profiling; assay type: cell-based; parameters: expressed in transfected cells; conditions: read-out: pEC50/pIC50 (converted)
T1 sequence (P08908 1-422): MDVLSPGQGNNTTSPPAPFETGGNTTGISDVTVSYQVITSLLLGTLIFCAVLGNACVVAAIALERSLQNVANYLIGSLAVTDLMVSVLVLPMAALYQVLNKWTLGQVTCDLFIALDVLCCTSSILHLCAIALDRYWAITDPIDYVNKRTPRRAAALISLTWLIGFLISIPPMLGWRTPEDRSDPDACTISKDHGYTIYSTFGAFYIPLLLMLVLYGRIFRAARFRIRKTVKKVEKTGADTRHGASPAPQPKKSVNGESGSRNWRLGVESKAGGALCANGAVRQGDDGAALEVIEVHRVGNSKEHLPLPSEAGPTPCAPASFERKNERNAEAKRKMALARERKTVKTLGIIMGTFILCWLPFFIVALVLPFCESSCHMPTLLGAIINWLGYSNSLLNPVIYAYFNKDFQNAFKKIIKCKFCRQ
Procedure: (§1) The functional receptor assay, Receptor Selection and Amplification Technology (R-SAT), was used (with minor modifications from that previously described U.S. Pat. No. 5,707,798) to screen compounds for efficacy at the 5-HT2A receptor. Briefly, NIH3T3 cells were grown in 96 well tissue culture plates to 70-80% confluence. Cells were transfected for 12-16 hours with plasmid DNAs using superfect (Qiagen Inc.) as per manufacture's protocols. R-SAT's were generally performed with 50 ng/well of receptor and 20 ng/well of Beta-galactosidase plasmid DNA. All receptor and G-protein constructs used were in the pSI mammalian expression vector (Promega Inc) as described in U.S. Pat. No. 5,707,798. The 5HT2A receptor gene was amplified by nested PCR from brain cDNA using the oligodeoxynucleotides based on the published sequence (see Saltzman et. al. Biochem. Biophys. Res. Comm. 181:1469-78 (1991)). Large-scale transfections, cells were transfected for 12-16 hours, then trypsinized and frozen in DMSO. Frozen cells were later thawed, plated at 10,000-40,000 cells per well of a 96 well plate that contained drug. With both methods, cells were then grown in a humidified atmosphere with 5% ambient CO2 for five days. Media was then removed from the plates and marker gene activity was measured by the addition of the beta-galactosidase substrate ONPG (in PBS with 5% NP-40). The resulting colorimetric reaction was measured in a spectrophotometric plate reader (Titertek Inc.)at […]. All data were analyzed using the computer program XLFit (IDBSm). Efficacy is the percent maximal repression compared to repression by a control compound (ritanserin in the case of 5HT2A). pIC50 is the negative of the log(IC50), where IC50 is the calculated concentration in Molar that produces 50% maximal repression.
(§2) The R-SAT assay (described above in example 136) was used to investigate the selectivity of 2-(4-Methoxyphenyl)-N-(4-methylbenzyl)-N-(1-methylpiperidin-4-yl)acetamide hydrochloride.

5HT1F = biological target: T2, 5HT1F (Homo sapiens, UniProt P30939); test: R-SAT broad profiling; assay type: cell-based; parameters: expressed in transfected cells; conditions: read-out: pEC50/pIC50 (converted)
T2 sequence (P30939 1-366): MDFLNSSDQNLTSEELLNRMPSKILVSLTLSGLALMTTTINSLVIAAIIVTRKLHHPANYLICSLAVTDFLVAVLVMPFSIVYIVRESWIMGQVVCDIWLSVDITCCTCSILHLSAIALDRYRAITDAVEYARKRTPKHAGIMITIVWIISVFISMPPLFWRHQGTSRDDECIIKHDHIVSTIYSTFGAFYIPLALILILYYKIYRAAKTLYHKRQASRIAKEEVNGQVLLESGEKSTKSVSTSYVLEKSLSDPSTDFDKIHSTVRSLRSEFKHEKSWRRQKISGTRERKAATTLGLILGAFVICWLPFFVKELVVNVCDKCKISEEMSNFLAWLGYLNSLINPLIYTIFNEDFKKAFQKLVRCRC
Procedure: as §1, §2

D2 = D2 (Homo sapiens, UniProt P14416); test: R-SAT broad profiling; assay type: cell-based; parameters: expressed in transfected cells; host or cells: NIH3T3; conditions: read-out: pEC50/pIC50 (converted)
D2, sequence (P14416 whole entry): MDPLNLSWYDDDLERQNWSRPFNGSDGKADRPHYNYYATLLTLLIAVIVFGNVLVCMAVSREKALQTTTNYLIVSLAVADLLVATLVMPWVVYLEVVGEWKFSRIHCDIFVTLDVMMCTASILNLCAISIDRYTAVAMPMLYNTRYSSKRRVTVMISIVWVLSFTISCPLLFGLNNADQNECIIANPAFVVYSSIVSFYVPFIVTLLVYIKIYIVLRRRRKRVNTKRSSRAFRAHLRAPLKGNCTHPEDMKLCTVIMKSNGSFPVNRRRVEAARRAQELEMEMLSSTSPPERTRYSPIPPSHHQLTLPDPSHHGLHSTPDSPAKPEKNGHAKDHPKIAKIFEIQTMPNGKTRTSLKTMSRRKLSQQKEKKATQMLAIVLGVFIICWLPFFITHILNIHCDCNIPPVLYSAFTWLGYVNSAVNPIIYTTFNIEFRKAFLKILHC
Procedure: as §1, with “Frozen cells were later thawed, plated at 10,000-40,000 cells per well of a 96 well plate that contained drug. With both methods, cells were then grown in a humidified atmosphere with 5% ambient CO2 for five days.” left out, “Efficacy is the percent maximal repression compared to repression by a control compound (ritanserin in the case of 5HT2A). pIC50 is the negative of the log(IC50), where IC50 is the calculated concentration in Molar that produces 50% maximal repression.” left out

5HT1A [4] = biological target: T1, 5HT1A; test: R-SAT broad profiling; assay type: cell-based; parameters: expressed in transfected cells; host or cells: NIH3T3; conditions: agonist; read-out: pEC50 or pIC50 (converted)
Procedure: as §1
(§3) The R-SAT assay (described above in example 289) was used to investigate the selectivity of 4-(4-Fluoro-benzyl)-3-(4-isobutoxy-benzyl)-8-methyl-1-oxa-3,8-diaza-spiro[4.5]decan-2-one.

5HT1E = 5HT1E (Homo sapiens, UniProt P28566); test: R-SAT broad profiling; assay type: cell-based; parameters: expressed in transfected cells; host or cells: NIH3T3; conditions: read-out: pEC50 or pIC50 (converted)
5HT1E, sequence (P28566 whole entry): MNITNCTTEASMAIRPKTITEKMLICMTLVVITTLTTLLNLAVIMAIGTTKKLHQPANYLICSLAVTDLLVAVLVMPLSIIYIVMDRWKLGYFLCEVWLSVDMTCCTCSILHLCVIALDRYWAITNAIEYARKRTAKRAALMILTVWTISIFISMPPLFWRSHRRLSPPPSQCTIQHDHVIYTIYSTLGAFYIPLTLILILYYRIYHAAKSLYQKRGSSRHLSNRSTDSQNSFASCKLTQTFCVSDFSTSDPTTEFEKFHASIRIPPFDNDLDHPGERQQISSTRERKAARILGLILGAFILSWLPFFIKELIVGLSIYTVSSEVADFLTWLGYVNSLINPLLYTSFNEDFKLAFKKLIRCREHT
Procedure: as §1, §3

CPT detected targets and false alarm change scores (healthy volunteers [1]; any dose, evening and morning (p>0.10)): absence of effect | daytime functioning (healthy volunteers [1]; in words): did not impair
Structure (SMILES): CC(C)COc1ccc(CNC(=O)N(Cc2ccc(F)cc2)C2CCN(C)CC2)cc1 [N-(1-methylpiperidin-4-yl)-N-(4-fluorophenylmethyl)-N′-(4-(2-methylpropyloxy)phenylmethyl)carbamide]
safety and tolerability (healthy volunteers [2]; 1 to 20 mg once daily, 14 days): safe and well tolerated | serious adverse events (healthy volunteers [2]; 1 to 20 mg once daily, 14 days): no serious adverse events | nature of adverse events (healthy volunteers [2]; comparable across placebo and treated groups): mild to moderate

EC50 (5HT1A [3]; agonist): > 3.16 µM | IC50 (5HT1A [3]; antagonist): > 3.16 µM | EC50 (5HT1F; agonist): > 3.16 µM | IC50 (5HT1F; antagonist): > 3.16 µM | EC50 (D2; agonist): > 3.16 µM | IC50 (D2; antagonist): > 3.16 µM
Structure (SMILES): COc1ccc(CC(=O)N(Cc2ccc(C)cc2)C2CCN(C)CC2)cc1 [Example 50ELH27, 2-(4-Methoxyphenyl)-N-(4-methylbenzyl)-N-(1-methylpiperidin-4-yl)acetamide]

Structure (SMILES): CC(C)COc1ccc(CN2C(=O)OC3(CCN(C)CC3)C2Cc2ccc(F)cc2)cc1.Cl (racemic) [Example 69NLS75, 4-(4-Fluorobenzyl)-3-(4-isobutoxybenzyl)-8-methyl-1-oxa-3,8-diazaspiro[4.5]decan-2-one, hydrochloride]
EC50 (5HT1A [4]): > 3.16 µM | EC50 (5HT1E; agonist): > 3.16 µM | IC50 (5HT1E; antagonist): > 0.631 µM
